Assays:
[1] = test system: 5′-FAM-AT11-L0-TAMRA-3′ (DNA, G4) TGGTGGTGGTTGTTGGGTGGTGGTGGT; test: FRET melting; conditions: 65 mM KCl, 20 mM potassium phosphate, pH 6.9, 0.2 µM DNA
[2] = test system: 5′-Cy5-AT11-L0 (DNA, G4) TGGTGGTGGTTGTTGGGTGGTGGTGGT; test: fluorescence titration (Cy5 quenching), two-site model; conditions: 65 mM KCl, 20 mM potassium phosphate; pH 6.9; 1 µM DNA; site 1 of 2; apparent
[3] = test system: 5′-Cy5-AT11-L0 (DNA, G4) TGGTGGTGGTTGTTGGGTGGTGGTGGT; test: fluorescence titration (Cy5 quenching), Hill model; conditions: 65 mM KCl, 20 mM potassium phosphate; pH 6.9; 1 µM DNA; apparent
[4] = target: T1, nucleolin RBD1,2 (NCL RBD1,2) (UniProt P19338 307-466); test: fluorescence titration (Cy5 quenching); ligand C8; two-site model, KD1; aptamer pre-annealed in 20 mM potassium phosphate pH 6.9, 65 mM KCl (95 C 10 min, ice 10 min); titration temperature not given in the material; conditions: protein: recombinant; label: 5'-Cy5; parallel G4, pre-folded in K+
[5] = target: T1, nucleolin RBD1,2 (NCL RBD1,2); test: fluorescence titration (Cy5 quenching); no ligand; two-site model, KD1; aptamer pre-annealed in 20 mM potassium phosphate pH 6.9, 65 mM KCl (95 C 10 min, ice 10 min); titration temperature not given in the material; conditions: protein: recombinant; label: 5'-Cy5; parallel G4, pre-folded in K+
[6] = target: T1, nucleolin RBD1,2 (NCL RBD1,2); test: fluorescence titration (Cy5 quenching); ligand PhenDC3; two-site model, KD1; aptamer pre-annealed in 20 mM potassium phosphate pH 6.9, 65 mM KCl (95 C 10 min, ice 10 min); titration temperature not given in the material; conditions: protein: recombinant; label: 5'-Cy5; parallel G4, pre-folded in K+

T1 sequence (P19338 307-466): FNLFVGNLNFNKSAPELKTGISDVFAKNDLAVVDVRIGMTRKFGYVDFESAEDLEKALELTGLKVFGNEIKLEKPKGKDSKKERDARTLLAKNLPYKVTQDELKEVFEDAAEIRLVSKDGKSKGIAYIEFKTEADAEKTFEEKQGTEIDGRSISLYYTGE

NCCOc1cc(C(=O)Nc2cc(OCCN)c3ccccc3n2)nc(C(=O)Nc2cc(OCCN)c3ccccc3n2)c1 was tested. Which ΔTm ([1]; 1 µM compound (5 eq)) did it give?
The ΔTm was 26.9 °C.

With C[n+]1cc(NC(=O)c2ccc3ccc4ccc(C(=O)Nc5cc6ccccc6[n+](C)c5)nc4c3n2)cc2ccccc21 as the molecule, how does the ΔTm ([1]; 1 µM compound (5 eq)) read?
The ΔTm was > 30 °C.

And the KD1 [2]?
The KD1 was 329 pM.

For CN(C)c1ccc2cc3ccc(N(C)C)cc3[n+](CCCCCCCCNC(=O)c3ccc(I)cc3)c2c1, which ΔTm ([1]; 1 µM compound (5 eq)) is on record?
Its ΔTm is 19.6 °C.

And the KD [3]?
Its KD is 22100 pM.

With C[n+]1ccc(-c2c3nc(c(-c4cc[n+](C)cc4)c4ccc([nH]4)c(-c4cc[n+](C)cc4)c4nc(c(-c5cc[n+](C)cc5)c5ccc2[nH]5)C=C4)C=C3)cc1 as the molecule, how does the ΔTm ([1]; 1 µM compound (5 eq)) read?
Its ΔTm is 28 °C.

For CN(C)c1ccc(Nc2c3ccc(NC(=O)CCN4CCCC4)cc3nc3cc(NC(=O)CCN4CCCC4)ccc23)cc1, which ΔTm ([1]; 1 µM compound (5 eq)) is on record?
Its ΔTm is 20.3 °C.

With C[C@@H]1C[C@H]2[C@@H]3CCC4=CC(=O)C=C[C@]4(C)[C@@]3(F)[C@@H](O)C[C@]2(C)[C@@]1(O)C(=O)CO as the molecule, how does the ΔTm ([1]; 0.2 µM compound (1 eq)) read?
The ΔTm was 0.1 °C.

With TGGTGGTGGTTGTTGGGTGGTGGTGGT (structured_DNA) [5'-Cy5-AT11-L0] as the molecule, how does the Kd [4] read?
The Kd was 24 pM.

And the Kd [5]?
The Kd was 12 pM.

What about the Kd [6] of the same molecule?
Its Kd is 20 pM.
